Measured values published in patent US12318365B2, “Inhibition of dipeptide repeat proteins” (ALS Therapy Development Institute, priority 2019, dated 2025).
No end group written: not given here.

Experiments:
[1] = tested on: NSC-34 cells; assay: Caspase-3 assay (apoptotic activity) in NSC-34 cells; type: cell-based; details: DRP 0.01-3 μM, 24 h; compared to DMSO-treated controls
Excerpt: Caspase-3/CPP32 Assay: The caspase-3 assay is a fluorometric assay that measures apoptotic cell death. Apoptosis is a form of “programmed” cell death, in which a certain family of proteins inside the cell triggers a cascade of chemical reactions that result in the cell killing itself. One family of proteins involved in this process is the caspase protein family. Of the caspase proteins, caspase-2, 8, 9, and 10 are known as “initiators,” those that trigger the death cascade, and caspase-3, 6, and 7 are known as “executioners,” which carry out the actual killing of the cell. In a caspase-3 assay, cells treated with test compounds are lysed, and a substrate known as DEVD-AFC is added to the lysate. If active caspase-3 enzyme is present in the lysate, it will cleave AFC from the DEVD-AFC substrate, resulting in a fluorescent signal that can be quantified using a fluorescence microtiter plate reader. Thus, the apoptotic activity of cells treated with test compounds can be quantified. Greater fluorescence readings correspond to more apoptotic cell death.
Cells were plated in culture medium in 2 96-well plates at a density of 3.7×10^4 cells per well, and incubated overnight at 37° C., 5% CO2. The following day, immediately prior to addition of test compounds, existing culture medium was removed and replaced with staggered volumes of culture medium as in Example 1. A 10 mM stock of MS023 was thawed to room temperature and diluted as in Example 1. A 10 mM stock of GR15 (SEQ ID NO: 1) and a 10 mM stock of PR15 (SEQ ID NO: 2) were equilibrated to room temperature and diluted in warm culture medium to achieve a final concentration of 300 nM in wells.
The following conditions were plated in triplicate. Samples were surrounded by border wells on the outside of the plate filled with sterile Phosphate-buffered saline to prevent evaporation of volume in experimental wells during incubation; • Background (Culture medium only) • Untreated/“Cells Only” (Cells in culture medium) • DMSO Control (Cells treated only with the amount of DMSO that GR- and PR-treated cells were exposed to) • GR Only (Cells treated only with 300 nM GR15) (SEQ ID NO: 1) • Cells treated with […] GR15 (SEQ ID NO: 1) and one of the following doses of MS023: 60 μM, 30 μM, 10 μM, 3 μM, 1 μM. • PR Only (Cells treated only with 300 nM PR15) (SEQ ID NO: 2) • Cells treated with 300 nM PR15 (SEQ ID NO: 2) and one of the following doses of MS023: 60 μM, 30 μM, 10 μM, 3 μM, 1 μM. • Cells treated with only one of the following doses of MS023: 60 μM, 30 μM, 10 μM, 3 μM, 1 μM. • Positive controls (Cells treated with either 5 or 16 μM PAC-1 Caspase-3 activator)
Plates were incubated for 24 h at 37° C., 5% CO2. Cells were tested and data were analyzed using the procedure detailed in Caspase-3 assay kit instructions.
Cells were plated in culture medium in 2 96-well plates at a density of 3.7×10^4 cells per well, and incubated overnight at 37° C., 5% CO2. The following day, immediately prior to addition of test compounds, existing culture medium was removed and replaced with staggered volumes of culture medium as in Example 1. A 10 mM stock of MS023 was thawed to room temperature and diluted in warm culture medium to achieve final concentrations of 3, 1, 0.3, 0.1, 0.03, and 0.01 μM in plate. A 10 mM stock of GR15 (SEQ ID NO: 1) and a 10 mM stock of PR15 (SEQ ID NO: 2) were equilibrated to room temperature and diluted in warm culture medium to achieve a final concentration of 3 μM in wells.
The following conditions were plated in triplicate. […]

[2] = tested on: NSC-34 cells; assay: BrdU ELISA (proliferation) in NSC-34 cells; type: cell-based, Mouse; details: DRP 0.01-3 μM, 24 h; compared to DMSO-treated controls
Procedure: BrdU ELISA: The BrdU ELISA is an ELISA detecting cell proliferation activity. BrdU is a pyrimidine analog that, when inside the cell, can be incorporated instead of thymidine into newly synthesized strands of DNA. Just as is indicated by thymidine incorporation into DNA, BrdU incorporation into cell DNA indicates DNA synthesis activity, which is required for cell proliferation. In the BrdU ELISA, cells are treated with test compounds as well as BrdU reagent, and then incubated for 24 hours before testing. During testing, an anti-BrdU antibody detects the incorporation of BrdU into cell DNA that occurred over the 24-hour period, as a surrogate for cell proliferation activity. This anti-BrdU antibody is then labelled with a secondary antibody tagged with a colored substrate, which can be quantified spectrophotometrically. Greater absorbance readings correspond to more cell proliferation activity.
Cells were plated in culture medium in 2 96-well plates at a density of 3.7×10^4 cells per well, and incubated overnight at 37° C., 5% CO2.
The following conditions were plated in triplicate.
Plates were incubated for 24 h at 37° C., 5% CO2. Cells were tested and data were analyzed using the procedure detailed in BrdU ELISA kit instructions.
Cells were plated in culture medium in 2 96-well plates at a density of 5×10^4 cells per well, and incubated overnight at 37° C., 5% CO2. […] 10 μL of each concentration would be added to 100 μL base media in plate to achieve final concentrations of 3, 1, 0.3, 0.1, 0.03, and 0.01 μM DRP.
The following conditions were plated in triplicate. Samples were surrounded by border wells on the outside of the plate filled with sterile Phosphate-buffered saline to prevent evaporation of volume in experimental wells during incubation; • Culture medium only • Background (Cells only in culture medium, without BrdU reagent) • Untreated (Cells only in culture medium, with BrdU reagent) • DMSO Controls (Cells treated with BrdU reagent and the amount of DMSO that DRP-treated cells were exposed to at each concentration) • i. The DMSO controls tested were as follows, corresponding to DRP doses starting at the highest (3 μM to the lowest 0.01 μM), and were diluted in culture medium: • 1. 0.03% DMSO • 2. 0.01% DMSO • 3. 0.003% DMSO • 4. 0.001% DMSO • 5. 0.0003% DMSO • 6.

| Sequence | DRP-induced apoptotic activity [1] | effect of DRP on proliferation activity [2] |
| --- | --- | --- |
| GPGPGPGPGPGPGPGPGPGPGPGPGPGPGP [GP15] | producing less robust levels of apoptotic activity | did not significantly impact proliferation activity |
| PAPAPAPAPAPAPAPAPAPAPAPAPAPAPA [PA15] | producing less robust levels of apoptotic activity | did not significantly impact proliferation activity |
